Source: patent US20070099915A1, “INHIBITORS OF THE HIV INTEGRASE ENZYME” (PFIZER INC., priority 2005, published 2007)
Read-outs that look alike come from different tables or passages of the source.

What was measured:
[1] = biological target: T1, Full-length wild type HIV-1 integrase (SF1) (Human immunodeficiency virus type 1 group M subtype B, UniProt P04585); assay: Integrase strand-transfer scintillation proximity assay; type: biochemical
T1 construct: made in house; host or cells: E. coli BL21 (DE3)

[2] = test system: HIV-1 RF virus in CEM-SS cells; assay: HIV-1 cell protection assay (XTT dye reduction); type: cell-based
In short: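 Infected CEM-SS cultures incubated six days, then XTT with phenazine methosulfate added for 4 h; viability read as formazan absorbance at 450 nm. Formazan expressed as percent of uninfected, compound-free cells; CC50 from uninfected treated cells, therapeutic index as CC50/EC50.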

[3] = strand-transfer SPA, 246 nM integrase, 50 nM host DNA, 37° C., 50 min, read-out: IC50
[4] = Human immunodeficiency virus 1, 144 h, RF strain of HIV-1, CEM-SS cells, XTT read-out after six days, read-out: EC50
[5] = Human immunodeficiency virus 1, CEM-SS, 144 h

SMILES | IC50 [1, 3] [nM] | EC50 [2, 4] [nM] | IC50 [1] [nM] | EC50 [2, 5] [nM]
O=c1c2ncc3c(c(CO)cn3Cc3ccc(F)cc3)c2ccn1O [Example 26, 3-(4-fluorobenzyl)-7-hydroxy-1-(hydroxymethyl)-3H-pyrrolo[2,3-c][1,7]naphthyridin-6(7H)-one] | 38 | 3 | – | –
O=C1c2ncc3c(c(CO)cn3Cc3ccc(F)cc3)c2CCN1O [Example 25, 3-(4-fluorobenzyl)-7-hydroxy-1-(hydroxymethyl)-3,7,8,9-tetrahydro-6H-pyrrolo[2,3-c]-1,7-naphthyridin-6-one] | – | – | 12 | 3
O=C1c2ncc3c(c(COCC4CCC4)cn3Cc3ccc(F)cc3)c2CCN1O [Example 79, 1-[(cyclobutylmethoxy)methyl]-3-(4-fluorobenzyl)-7-hydroxy-3,7,8,9-tetrahydro-6H-pyrrolo[2,3-c]-1,7-naphthyridin-6-one] | 10 | 1 | – | –
CC(NCc1cn(Cc2ccc(F)cc2)c2cnc3c(=O)n(O)ccc3c12)c1ccc(Br)cc1 (stereo not drawn) [Example 36, 1-({[1-(4-bromophenyl)ethyl]amino}methyl)-3-(4-fluorobenzyl)-7-hydroxy-3,7-dihydro-6H-pyrrolo[2,3-c]-1,7-naphthyridin-6-one] | 10 | 3 | – | –
CC(C)CN(C)Cc1cn(Cc2ccc(F)cc2)c2cnc3c(c12)CCN(O)C3=O [Example 123, 3-(4-fluorobenzyl)-7-hydroxy-1-{[isobutyl(methyl)amino]methyl}-3,7,8,9-tetrahydro-6H-pyrrolo[2,3-c]-1,7-naphthyridin-6-one] | 44 | 1.6 | – | –
O=C1c2ncc3c(ccn3Cc3ccccn3)c2CCN1O [Example 87, 7-hydroxy-3-(pyridin-2-ylmethyl)-3,7,8,9-tetrahydro-6H-pyrrolo[2,3-c]-1,7-naphthyridin-6-one] | 89 | 35 | – | –
O=c1c2ncc3c(c(COCCOCc4ccccc4)cn3Cc3ccc(F)cc3)c2ccn1O [Example 92, 1-{[2-(benzyloxy)ethoxy]methyl}-3-(4-fluorobenzyl)-7-hydroxy-3,7-dihydro-6H-pyrrolo[2,3-c]-1,7-naphthyridin-6-one] | 3 | 10 | – | –
N#Cc1cccc(Cn2ccc3c4c(ncc32)C(=O)N(O)CC4)c1 [Example 85, 3-[(7-hydroxy-6-oxo-6,7,8,9-tetrahydro-3H-pyrrolo[2,3c]1,7-naphthyridin-3-yl)methyl]benzonitrile] | 558 | 460 | – | –
Cc1cc2c(ncc3c2c(CO)cn3Cc2ccc(F)cc2)c(=O)n1O [Example 47, 3-(4-fluorobenzyl)-7-hydroxy-1-(hydroxymethyl)-8-methyl-3,7-dihydro-6H-pyrrolo[2,3-c]-1,7-naphthyridin-6-one] | – | – | 6 | 0.39
CN1CCN(C(=O)c2cn(Cc3ccc(F)cc3)c3cnc4c(c23)CCN(O)C4=O)CC1 [Example 17, 3-(4-fluorobenzyl)-7-hydroxy-1-[(4-methylpiperazin-1-yl)carbonyl]-3,7,8,9-tetrahydro-6H-pyrrolo[2,3-c]-1,7-naphthyridin-6-one] | 17 | – | – | 150
O=C1c2ncc3c(c(CNCC(F)F)cn3Cc3ccc(F)cc3)c2CCN1O [Example 81, 1-{[(2,2-difluoroethyl)amino]methyl}-3-(4-fluorobenzyl)-7-hydroxy-3,7,8,9-tetrahydro-6H-pyrrolo[2,3-c]-1,7-naphthyridin-6-one] | 8 | 0.32 | – | –
O=C1c2ncc3c(c(CCNC4CCOCC4)cn3Cc3ccc(F)cc3)c2CCN1O [Example 112, 3-(4-flourobenzyl)-7-hydroxy-1-(2-(tetrahydro-2H-pyran-4-ylamino)ethyl)-8,9-dihydro-3H-pyrrolo[2,3-c][1,7]naphthyridin-6(7H)-one] | 28 | 63 | – | –
COCCN(C)Cc1cn(Cc2ccc(F)cc2)c2cnc3c(=O)n(O)c(C)cc3c12 [Example 102, 3-(4-fluorobenzyl)-7-hydroxy-1-{[(2-methoxyethyl)(methyl)amino]methyl}-8-methyl-3,7-dihydro-6H-pyrrolo[2,3-c]-1,7-naphthyridin-6-one] | 13 | 0.25 | – | –
CN(C(=O)c1cn(Cc2ccc(F)cc2)c2cnc3c(c12)CCN(O)C3=O)C1CCOCC1 [Example 20, 3-(4-fluorobenzyl)-7-hydroxy-N-methyl-6-oxo-N-(tetrahydro-2H-pyran-4-yl)-6,7,8,9-tetrahydro-3H-pyrrolo[2,3-c]-1,7-naphthyridine-1-carboxamide] | 19 | – | – | 52
CC(C)COCc1cn(Cc2ccc(F)cc2)c2cnc3c(c12)CCN(O)C3=O [Example 56, 3-(4-fluorobenzyl)-7-hydroxy-1-(isobutoxymethyl)-3,7,8,9-tetrahydro-6H-pyrrolo[2,3-c]-1,7-naphthyridin-6-one] | 11 | 0.32 | – | –
CCCN(CCO)Cc1cn(Cc2ccc(F)cc2)c2cnc3c(=O)n(O)c(C)cc3c12 [Example 97, 3-(4-fluorobenzyl)-7-hydroxy-1-{[(2-hydroxyethyl)(propyl)amino]methyl}-8-methyl-3,7-dihydro-6H-pyrrolo[2,3-c]-1,7-naphthyridin-6-one] | 17 | 0.69 | – | –
Cc1cc2c(ncc3c2c(CN2CCOCC2)cn3Cc2ccc(F)cc2)c(=O)n1O [Example 43, 3-(4-fluorobenzyl)-7-hydroxy-8-methyl-1-(morpholin-4-ylmethyl)-3,7-dihydro-6H-pyrrolo[2,3-c]-1,7-naphthyridin-6-one] | 9.36 | 0.41 | – | –
CN1CCN(CCCc2cn(Cc3ccc(F)cc3)c3cnc4c(c23)CCN(O)C4=O)CC1=O [Example 127, 3-(4-fluorobenzyl)-7-hydroxy-1-[3-(4-methyl-3-oxopiperazin-1-yl)propyl]-3,7,8,9-tetrahydro-6H-pyrrolo[2,3-c]-1,7-naphthyridin-6-one] | 14 | 40 | – | –
COCCN1CCN(Cc2cn(Cc3ccc(F)cc3)c3cnc4c(c23)CCN(O)C4=O)CC1 [Example 49, 3-(4-fluorobenzyl)-7-hydroxy-1-{[4-(2-methoxyethyl)piperazin-1-yl]methyl}-3,7,8,9-tetrahydro-6H-pyrrolo[2,3-c]-1,7-naphthyridin-6-one] | 16.2 | 3.2 | – | –
O=c1c2ncc3c(c(COCC4CCC4)cn3Cc3ccc(F)cc3)c2ccn1O [Example 90, 1-[(cyclobutylmethoxy)methyl]-3-(4-fluorobenzyl)-7-hydroxy-3,7-dihydro-6H-pyrrolo[23-c]-17-naphthyridin-6-one] | 59 | 14 | – | –
Cc1cc2c(ncc3c2c(CN2CCN(C)C(=O)C2)cn3Cc2ccc(F)cc2)c(=O)n1O [Example 96, 3-(4-fluorobenzyl)-7-hydroxy-8-methyl-1-[(4-methyl-3-oxopiperazin-1-yl)methyl]-3,7-dihydro-6H-pyrrolo[2,3-c]-1,7-naphthyridin-6-one] | 10 | 5 | – | –
CCCCOCCOCc1cn(Cc2ccc(F)cc2)c2cnc3c(c12)CCN(O)C3=O [Example 59] | 16 | 4.9 | – | –
O=C1c2ncc3c(c(CCCO)cn3Cc3ccc(F)cc3)c2CCN1O [Example 120, 3-(4-fluorobenzyl)-7-hydroxy-1-(3-hydroxypropyl)-3,7,8,9-tetrahydro-6H-pyrrolo[2,3-c]-1,7-naphthyridin-6-one] | 13 | 9 | – | –
COCCN(Cc1cn(Cc2ccc(F)cc2)c2cnc3c(c12)CCN(O)C3=O)C(C)(C)C [Example 40, 1-{[tert-butyl(2-methoxyethyl)amino]methyl}-3-(4-fluorobenzyl)-7-hydroxy-3,7,8,9-tetrahydro-6H-pyrrolo[2,3-c]-1,7-naphthyridin-6-one] | 24.4 | 4.6 | – | –
Cc1cc2c(ncc3c2c(CN2CCCCC2)cn3Cc2ccc(F)cc2)c(=O)n1O [Example 101, 3-(4-fluorobenzyl)-7-hydroxy-8-methyl-1-(piperidin-1-ylmethyl)-3,7-dihydro-6H-pyrrolo[2,3-c]-1,7-naphthyridin-6-one] | 14 | 0.46 | – | –
Cc1cc2c(ncc3c2c(CN2CCN(C)CC2)cn3Cc2ccc(F)cc2)c(=O)n1O [Example 95, 3-(4-fluorobenzyl)-7-hydroxy-8-methyl-1-[(4-methylpiperazin-1-yl)methyl]3,7-dihydro-6H-pyrrolo[2,3-c]-1,7-naphthyridin-6-one] | 14 | 0.45 | – | –
CCn1ccnc1CN(C)Cc1cn(Cc2ccc(F)cc2)c2cnc3c(c12)CCN(O)C3=O [Example 70, 1-{[[(1-ethyl-1H-imidazol-2-yl)methyl](methyl)amino]methyl}-3-(4-fluorobenzyl)-7-hydroxy-3,7,8,9-tetrahydro-6H-pyrrolo[2 3-c]-1,7-naphthyridin-6-one] | 22 | 43 | – | –
N#Cc1cn(Cc2ccc(F)cc2)c2cnc3c(c12)CCN(O)C3=O [Example 54, 3-(4-fluorobenzyl)-7-hydroxy-6-oxo-6,7,8,9-tetrahydro-3H-pyrrolo[2,3-c]-1,7-naphthyridine-1-carbonitrile] | 20 | 6.6 | – | –
O=C1c2ncc3c(c(COCCOCc4ccccc4)cn3Cc3ccc(F)cc3)c2CCN1O [Example 57, 1-{[2-(benzyloxy)ethoxy]methyl}-3-(4-fluorobenzyl)-7-hydroxy-3,7,8,9-tetrahydro-6H-pyrrolo[2,3-c]-1,7-naphthyridin-6-one] | 12 | 0.69 | – | –
CN(C1CCCC1)S(=O)(=O)c1cn(Cc2ccc(F)cc2)c2cnc3c(c12)CCN(O)C3=O [Example 21, N-cyclopentyl-3-(4-fluorobenzyl)-7-hydroxy-N-methyl-6-oxo-6,7,8,9-tetrahydro-3H-pyrrolo[2,3-c]-1,7-naphthyridine-1-sulfonamide] | 905 | 120 | – | –
